Assay results reported in patent US10370644B2, “Method for making human pluripotent suspension cultures and cells derived therefrom” (Janssen Biotech, Inc., priority 2012, dated 2019).

What was measured:
Format in all cases: cell-based
[1] = test system: Clusters from pluripotent human embryonic stem cell line H1 (NIH code: WA01); experiment: qRT-PCR gene expression, fold versus undifferentiated cells, 0-72 hours of differentiation (Example 15)
Method: (§1) Clusters from pluripotent human embryonic stem cell line H1 (NIH code: WA01) were seeded at 0.5×10^6 cells/ml in Erlenmeyer shaker flasks in MCDB-131 medium containing […] sodium bicarbonate and 5.5 mM glucose (Catalog #A13051 DJ, Invitrogen, CA), which was supplemented with 2% fatty acid free BSA (Catalog #68700, Proliant, Iowa), 1× GlutaMAX™ (Catalog #35050-079, Invitrogen, CA), an additional 2.5 mM glucose (Catalog #G8769, Sigma) and ITS-X at 1:50,000 stock concentration (Catalog #51500056, Invitrogen, CA). MCDB-131 medium supplemented in this manner will be referred to as stage 1 basal medium or “Neat” medium for the purposes of this example. The GSK3B inhibitor, 14-Prop-2-en-1-yl-3,5,7,14,17,23,27-heptaazatetracyclo[19.3.1.1-2,6˜.1˜8,12˜]heptacosa-1(25),2(27),3,5,8(26),9,11,21,23-nonaen-16-one, U.S. patent application Ser. No. 12/494,789; incorporated herein by reference in its entirety will be referred to as “MCX”.
(§2) Clusters were treated on the first day of differentiation with one of six conditions: (1) Neat, (2) 3 μM MCX plus 100 ng/ml GDF-8 (Catalog #120-00, Peprotech), (3) 3 μM MCX only, (4) 100 ng/ml GDF-8 only, (5) 20 ng/ml WNT-3A (Catalog #1324-WN-002, R&D Systems, MN) plus 100 ng/ml Activin A (Catalog #338-AC, R&D Systems, MN), or (6) 20 ng/ml WNT-3A only.
(§3) Media in each of the conditions was changed at 24 and 48 hours after the initiation of differentiation. At these times, cells in conditions 1, 2, 3, and 4 were changed to fresh stage 1 basal media supplemented with 100 ng/ml GDF8 while cells in conditions 5 and 6 were changed to fresh stage 1 basal media supplemented with 100 ng/ml Activin A.
However, consistent with the differences in cell cycle observed through the process of forming definitive endoderm, intermediate differences in gene expression were seen. […] (FIGS. 88c and e).

[2] = test system: Clusters from pluripotent human embryonic stem cell line H1 (NIH code: WA01); experiment: EdU incorporation and cell cycle stage (G0/G1, S, G2/M) by flow cytometry during definitive endoderm differentiation; conditions: for cells in G0/G1 of the cell cycle: 48 hours after initiation of differentiation; for percentage of cells with EdU incorporation (mean of GDF8, WNT-3A, WNT-3A+Activin A and neat medium) / average decrease in the number of cells in G0/G1 (GDF8, WNT-3A, WNT-3A+Activin A and neat medium): six hours after the initiation of differentiation; for percentage of cells with EdU incorporation (mean of GDF8, WNT-3A, WNT-3A+Activin A and neat medium): SD ±1.2; for average decrease in the number of cells in G0/G1 (GDF8, WNT-3A, WNT-3A+Activin A and neat medium): Standard Deviation ±5%
Method: as §1, §2, §3
One hour prior to initiation of differentiation, and 5, 23, 29, 47, or 71 hours after the initiation of differentiation (referred to as “Time 0”), suspension samples were transferred to a non-tissue culture treated six well dish and incubated with EdU (Click-iT® EdU Kit, Life Technologies Corporation, Carlsbad, Calif.) for one hour. The EdU incubated cells were then assessed by flow cytometry at times 0, 6, 24, 30, 48, or 72 hours after initiation of differentiation to measure the percentage of cells in G0/G1, S, or G2/M stages of the cell cycle (FIGS. 81-87).

[3] = test system: Clusters from pluripotent human embryonic stem cell line H1 (NIH code: WA01); experiment: Efficiency of definitive endoderm generation: percentage of cells expressing CXCR4 (CD184), CD99 and CD9 by flow cytometry after 3 days of differentiation in suspension culture; conditions: for CD9 (% by FACS) / CD184 (% by FACS) / CD99 (% by FACS): end of day three
Method: Clusters from pluripotent human embryonic stem cell line H1 (NIH code: […] MCDB-131 medium supplemented in this manner will be referred to as “stage 1 basal medium” for the purposes of this application. […] No. 12/494,789; incorporated herein by reference in its entirety) and 100 ng/ml GDF-8 (Catalog #120-00, Peprotech), or 3 μM MCX only, or 20 ng/ml WNT-3A (Catalog #1324-WN-002, R&D Systems, MN) plus 100 ng/ml Activin A (Catalog #338-AC, R&D Systems, MN) or 20 ng/ml WNT-3A only. On day two, cells were transferred to fresh stage 1 basal media supplemented with either 100 ng/ml GDF8 or 100 ng/ml Activin A. Samples were collected for flow cytometry, PCR and Western Blot analysis at various time points ranging from time zero (immediately before addition of basal media plus supplements) up to 72 hours after beginning differentiation. The efficiency with which definitive endoderm was generated was determined after 3 days of differentiation under each condition by measuring the percentage of cells expressing the cells surface markers CXCR4, CD99 and CD9 using flow cytometry. […] Clusters from pluripotent human embryonic stem cell line H1 (NIH code: WA01) were seeded at cell densities ranging from 0.25×10^6 to 2×10^6 cells/ml in Erlenmeyer/shaker flasks or spinner flasks in stage 1 basal media as described in Example 9. Clusters were treated with stage 1 basal medium containing 1.5, 2, 3, or 4 μM MCX on day one of differentiation and with fresh stage 1 basal medium containing 100 ng/ml GDF-8 on day 2. No media exchange was performed on day three. Samples were collected for flow cytometry and PCR analysis at the end of day three of differentiation. The efficiency with which definitive endoderm was generated was then determined by measuring the percentage of cells expressing the cells surface markers CXCR4, CD99 and CD9 using flow cytometry. […] However, by increasing BSA concentrations, the effects of MCX can be modulated such that concentrations≥4 micromolar may be used. Conversely, concentrations≤1.5 micromolar may be used to generate definitive endoderm when used with lower BSA concentrations. The example was carried out to determine whether GlutaMAX™ supplementation was required for generation of definitive endoderm by suspending clusters in stage 1 basal media (described in Example 9) plus or minus GlutaMAX™, which was supplemented with 3 μM MCX on day one of differentiation and with fresh stage 1 basal medium containing 100 ng/ml GDF-8 on day 2. No media exchange was performed on day three. Samples were collected for flow cytometry and PCR analysis at the end of day three of differentiation. The efficiency with which definitive endoderm was generated was determined under each condition by measuring the percentage of cells expressing the cells surface markers CXCR4, CD99 and CD9 using flow cytometry. Clusters from pluripotent human embryonic stem cell line H1 (NIH code: […] Clusters were treated with stage 1 basal medium containing MCX and GDF-8 as described in Example 12. Samples were collected for flow cytometry at the end of day three of differentiation. Phase contrast images were also captured on each day of differentiation. The efficiency with which definitive endoderm was generated was then determined by measuring the percentage of cells expressing the cells surface markers CXCR4, CD99 and CD9 using flow cytometry. The data is shown in FACS plots in FIGS. 44 A&B and summarized in Table 17. […] In addition, it was observed that differences in bicarbonate levels correlated with differences in cluster morphologies at the end of stage 1, as observed by phase contrast microscopy (FIGS. 44 C&D). Also, cells differentiated under high bicarbonate levels were noted to form looser clusters than cells differentiated in 2.43 g/L of bicarbonate.

[4] = test system: Clusters from pluripotent human embryonic stem cell line H1 (NIH code: WA01); experiment: Cell viability of clusters treated with MCX in suspension culture; conditions: MCX at concentrations above 4 μM
Method: Clusters from pluripotent human embryonic stem cell line H1 (NIH code: WA01) were seeded at cell densities ranging from 0.25×10^6 to 2×10^6 cells/ml in Erlenmeyer/shaker flasks or spinner flasks in stage 1 basal media as described in Example 9. Clusters were treated with stage 1 basal medium containing 1.5, 2, 3, or 4 μM MCX on day one of differentiation and with fresh stage 1 basal medium containing 100 ng/ml GDF-8 on day 2. No media exchange was performed on day three. Samples were collected for flow cytometry and PCR analysis at the end of day three of differentiation.
The efficiency with which definitive endoderm was generated was then determined by measuring the percentage of cells expressing the cells surface markers CXCR4, CD99 and CD9 using flow cytometry. […] However, by increasing BSA concentrations, the effects of MCX can be modulated such that concentrations≥4 micromolar may be used. Conversely, concentrations≤1.5 micromolar may be used to generate definitive endoderm when used with lower BSA concentrations.

[5] = 6 hours following initiation of differentiation
[6] = 1.5 μM MCX on day one, 100 ng/ml GDF-8 on day 2
[7] = 2 μM MCX on day one, 100 ng/ml GDF-8 on day 2
[8] = 3 μM MCX on day one, 100 ng/ml GDF-8 on day 2
[9] = 4 μM MCX on day one, 100 ng/ml GDF-8 on day 2
[10] = 2.43 g/L Sodium bicarbonate in modified stage 1 basal media, MCX and GDF-8
[11] = 3.64 g/L Sodium bicarbonate in stage 1 basal media, MCX and GDF-8

Molecule: C=CCN1CC(=O)NCCCc2cncc(c2)-c2ncnc(n2)Nc2cccc(c2)C1 [MCX, 14-Prop-2-en-1-yl-3,5,7,14,17,23,27-heptaazatetracyclo[19.3.1.1˜2,6-˜0.1˜8,12.˜]heptacosa-1(25),2(27),3,5,8(26),9,11,21,23-non-aen-16-one]
- magnitude of induction of FGF4, FOXA2 and SOX17 compared to the other four conditions ([1]; 24 hours after the initiation of differentiation): much lower
- expression of genes for pluripotency (NANOG and POU5F1/OCT4) versus starting cell population or other four conditions ([1]; by 24 hours): dramatically reduced
- definitive endoderm by gene expression versus 20 ng/ml WNT-3A plus 100 ng/ml Activin A on day one ([1]; end of definitive endoderm formation): comparable
- induction of genes T (brachyury), GATA4 and CDX2 versus WNT-3A+Activin A or the other three conditions ([1]; first 24 hours of differentiation): substantially higher
- increase in G0/G1 cells [2, 5]: 54%
- reduction in the incorporation of EdU compared to the other four treatment conditions [2, 5]: ~40%
- CD9 (% by FACS) [3, 6]: 68.4%
- CD184 (% by FACS) [3, 6]: 67.8%
- CD9 (% by FACS) [3, 7]: 0.2%
- CD184 (% by FACS) [3, 7]: 96.5%
- definitive endoderm level versus 3 μM MCX plus 100 ng/ml GDF-8 or 20 ng/ml WNT-3A plus 100 ng/ml Activin A on day one ([3]; 3 μM MCX in the absence of a TGF-β family member on day one): comparable
- CD9 (% by FACS) [3, 8]: 0.2%
- CD184 (% by FACS) [3, 8]: 96.0%
- CD9 (% by FACS) [3, 9]: 1.0%
- CD184 (% by FACS) [3, 9]: 95.2%
- definitive endoderm positive cells (CXCR4 positive, CD9 positive) ([3]; MCX at concentrations less than 2 μM): progressively fewer definitive endoderm positive cells
- effect on cell viability [4]: decreased cell viability

Molecule: O=C([O-])O.[Na+] [Sodium bicarbonate]
- CD9 (% by FACS) [3, 10]: 12.3%
- CD99 (% by FACS) [3, 10]: 66.7%
- cells expressing CXCR4, on average ([3]; 2.43 g/L sodium bicarbonate): 87.4%
- CD9 (% by FACS) [3, 11]: 5.5%
- CD99 (% by FACS) [3, 11]: 92.7%
- cells expressing CXCR4, on average ([3]; 3.64 g/L sodium bicarbonate): 97.35%

Molecule: GDF8: TGF-β family member, GDF8 (Catalog #120-00, Peprotech)
- cells in G0/G1 of the cell cycle [2]: 48.5%
- percentage of cells with EdU incorporation (mean of GDF8, WNT-3A, WNT-3A+Activin A and neat medium) [2]: 48.1%
- average decrease in the number of cells in G0/G1 (GDF8, WNT-3A, WNT-3A+Activin A and neat medium) [2]: 13%

B1: WNT-3A: WNT-3A (Catalog #1324-WN-002, R&D Systems) (protein, UniProt P56704 19-352, looked up)
Protein Wnt-3a: SYPIWWSLAVGPQYSSLGSQPILCASIPGLVPKQLRFCRNYVEIMPSVAEGIKIGIQECQHQFRGRRWNCTTVHDSLAIFGPVLDKATRESAFVHAIASAGVAFAVTRSCAEGTAAICGCSSRHQGSPGKGWKWGGCSEDIEFGGMVSREFADARENRPDARSAMNRHNNEAGRQAIASHMHLKCKCHGLSGSCEVKTCWWSQPDFRAIGDFLKDKYDSASEMVVEKHRESRGWVETLRPRYTYFKVPTERDLVYYEASPNFCEPNPETGSFGTRDRTCNVSSHGIDGCDLLCCGRGHNARAERRREKCRCVFHWCCYVSCQECTRVYDVHTCK
- cells in G0/G1 of the cell cycle [2]: 55.8%
- percentage of cells with EdU incorporation (mean of GDF8, WNT-3A, WNT-3A+Activin A and neat medium) [2]: 48.1%
- average decrease in the number of cells in G0/G1 (GDF8, WNT-3A, WNT-3A+Activin A and neat medium) [2]: 13%
